Data taken from PMC7321114, “Anion Inhibition Studies of the Beta-Carbonic Anhydrase from Escherichia coli” (Molecules, 2020).

target: T1, CynT2 (Escherichia coli, UniProt P61517); assay: stopped-flow CO2 hydration assay; type: biochemical; conditions: CO2 substrate 1.7-17 mM, pH 8.3, 20 mM Tris, 20 mM NaClO4, 15 min preincubation; read-out: KI (mM) ^1 / CynT2
T1 construct: gene can; full-length synthetic gene, 220 residues, no signal peptide, N-terminal His6 fusion (pET100D-Topo), expressed in E. coli BL21(DE3) codon plus, about 29 kDa subunit, tag removal not mentioned
T1 sequence (P61517 whole entry, the tested form may be a part): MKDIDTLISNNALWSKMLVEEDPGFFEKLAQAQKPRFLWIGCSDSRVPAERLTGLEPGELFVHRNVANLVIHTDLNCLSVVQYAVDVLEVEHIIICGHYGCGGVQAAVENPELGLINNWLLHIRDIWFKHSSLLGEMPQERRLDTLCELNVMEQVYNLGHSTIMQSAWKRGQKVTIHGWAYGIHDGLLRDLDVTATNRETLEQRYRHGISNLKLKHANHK

Row | Structure (SMILES) | Ki [mM]
1 | OB1OB2OB(O)OB(O1)O2 [B4O7^2−] | 0.25
2 | F[P-](F)(F)(F)(F)F [PF6^−] | > 10

same assay, conditions: read-out: KI (mM) ^1 / CynT2

Row | Structure (SMILES) | Ki [mM]
3 | N#CS [SCN^−] | 5.7
4 | Br [Br^−] | 3.8
5 | OB(O)c1ccccc1 [PhB(OH)2] | 0.0028
6 | O=S(=O)(O)NS(=O)(=O)O [NH(SO3)2^2−] | 1.5
7 | O=S(=O)(O)F [FSO3^−] | 0.83
8 | O=S(=O)(O)C(F)(F)F [CF3SO3^−] | > 10
9 | NS(N)(=O)=O [NH2SO2NH2] | 0.011
10 | N#C[SeH] [SeCN^−] | 3.1
11 | Cl [Cl^−] | 6.7
12 | O=[N+]([O-])O [NO3^−] | 2.4
13 | [O]=[V]([OH])([OH])[O][V](=[O])([OH])[OH] [V2O7^2−] | > 10
14 | S=C(S)S [CS3^2−] | 3.1
15 | O=S(=O)(O)OOS(=O)(=O)O [S2O8^2−] | 6.4
16 | O=P(O)(O)OP(=O)(O)O [P2O7^2−] | > 10
17 | N#CO [CNO^−] | 0.58
18 | I [I^−] | > 10
19 | F [F^−] | 9.4
20 | O=[Se](=O)(O)O [SeO4^2−] | 3.1
21 | S [HS^−] | 2.7
22 | NS(=O)(=O)O [NH2SO3H] | 0.0025
23 | O=S(O)O [HSO3^−] | 3.7
24 | O=S(=O)(O)O [SO4^2−] | 1.7
25 | [O]=[Ru](=[O])(=[O])[OH] [RuO4^−] | 9.5
26 | [O-][Cl+3]([O-])([O-])O [ClO4^−] | > 100
27 | CCN(CC)C(=S)S [EtNCS2^−] | 0.084
28 | O=[Te](=O)(O)O [TeO4^2−] | 0.51
29 | [O]=[Re](=[O])(=[O])[OH] [ReO4^−] | > 10
30 | O=NO [NO2^−] | 4.9
